Molecules are shown by their SMILES. Bounds are passed on as bounds.

The nature of data set [1]: Cytotoxicity, neutral red uptake assay, AGS. The data set is classed as cell-based. The conditions noted are these: human, AGS gastric adenocarcinoma cells, confluent monolayers, confluent cultures, 0-1000 µM, mean ± SD. On the procedure:
(§1) Human gastric adenocarcinoma cells AGS (ATCC CRL-1739) were grown as monolayers in Ham F-12 medium containing 1.0 mM L-glutamine and 1.5 g/L sodium bicarbonate, supplemented with 10% heat-inactivated FBS, 100 IU/mL penicillin and 100 µg/mL streptomycin in a humidified incubator with 5% CO2 in air at 37 °C. The cell passage was maintained between 42 and 48. The medium was changed every 2 days. Confluent cultures of MRC-5, AGS and Hep G2 cells were treated with medium containing the compounds at concentrations ranging from 0 up to 1000 µM. The products were first dissolved in DMSO and then in the corresponding culture medium supplemented with 2% FBS. The final content of DMSO in the test medium and controls was 1%. Cells were exposed for 24 h to the assayed compounds. Untreated cells served as controls. Each concentration was tested in quadruplicate together with the control and repeated three times in separate experiments. At the end of the incubation, the neutral red uptake (NRU) assay was carried out to determine cell viability. To calculate the IC50 values (concentration that produces a 50% inhibitory effect on the evaluated parameter) the results were transformed to percentage of controls and the IC50 value was graphically obtained from the dose-response curves.

Data set [2] is described as follows: Cytotoxicity, neutral red uptake assay, Hep G2. The format is cell-based. The conditions noted are these: human, Hep G2 cells, confluent monolayers, confluent cultures, 0-1000 µM, mean ± SD. On the procedure:
(§2) Human normal lung fibroblasts MRC-5 (ATCC CCL-171) and Hep G2 cells (ATCC HB-8065) were grown as monolayers in minimum essential Eagle´s medium (MEM), with Earle's salts, 2.0 mM L-glutamine (Sigma Chemical Co.) and 2.0 g/L sodium bicarbonate (Sigma Chemical Co.), supplemented with 10% heat-inactivated fetal bovine serum (FBS), 100 IU/mL penicillin and 100 µg/mL streptomycin in a humidified incubator with 5% CO2 in air at 37 °C. Cell passage was maintained between 10 and 16 for MRC-5 and between 79 and 82 for Hep G2 cells. The medium was changed every 2 days. Culture media, antibiotics and FBS were obtained from Invitrogen Corp.
as §1, with “Confluent” for “Human gastric adenocarcinoma cells AGS (ATCC CRL-1739) were grown as monolayers in Ham F-12 medium containing 1.0 mM L-glutamine and 1.5 g/L sodium bicarbonate, supplemented with 10% heat-inactivated FBS, 100 IU/mL penicillin and 100 µg/mL streptomycin in a humidified incubator with 5% CO2 in air at 37 °C. The cell passage was maintained between 42 and 48. The medium was changed every 2 days. Confluent”

Data set [3] relates to ethanol/HCl-induced gastric lesions. Briefly: Ethanol/HCl-induced gastric lesion (ulcer) model in mice. The format is in vivo. The conditions noted are these: for Gastroprotective effect: Lesion index: mean ± SD. The procedure:
The gastroprotective activity of the compounds was determined in the ethanol/HCl-induced lesion model in mice. The purity of the tested compounds was higher than 95% by NMR analysis. Male Swiss albino mice weighing 30 ± 3 g were used. Animals were fed on certified Champion diet with free access to water under standard conditions of 12 h dark-light period, 50% relative humidity and 22 °C room temperature. Mice were randomly distributed into groups of eight animals each and fasted for 24 h with free access to water previous to the experiment. Fasting prior to ulcerogenic assays was used because 0.2 mL of the reference antisecretory drug lansoprazole (2-[[[3-methyl-4-(2,2,2-trifluroethoxy)-2-pyridyl]methyl]sulfinyl]benzimidazole) and the amides were administered orally. To keep the animal number to a minimum, dose-response studies were performed with the leucine derivatives 13 and 18 to set the conditions for single-dose comparison of gastroprotective effect. For the selected parent compounds, three doses were used: 25, 50 and 100 mg/kg. Fifty min after oral administration of the compounds, lansoprazole (20 mg/kg) or the vehicle (12% Tween 80, 10 mL/kg), all groups were orally treated with 0.2 mL of a solution containing 60% ethanol/0.3 M HCl (ethanol/HCl) for gastric lesion induction. Animals were sacrificed by cervical dislocation 1 h after the administration of ethanol/HCl, and the stomachs excised and inflated by injection of 5% formalin (1 mL). The ulcerated stomachs were fixed in 5% formalin for 30 min and opened along the greater curvature. The length (mm) of each lesion was measured, and the lesion index expressed as the sum of the length of all lesions. For comparison purposes, the products 1-5, 7-12, 14-16, 19 and 20 were assessed at a single oral dose of 25 mg/kg. The protocols were approved by the Universidad de Talca Institutional Animal Care and Use Committee, which follows the recommendations of the Canadian Council on Animal Care. Tween 80 and lansoprazole (> 98% purity by HPLC) were purchased from Sigma Chemical Co.
Results were expressed as the mean ± SD. In all experiments, statistical differences between several treatments and their respective control were determined by one-way analysis of variance (ANOVA) and when the F value was significant, post hoc differences were determined by the Dunnett's multiple comparison test. The level of significance was set at P < 0.05. All statistical analyses were performed using the software Statistica 5.1 (StatSoft, Inc.) and Statistical Package S-Plus 2000.

The nature of data set [4]: Cytotoxicity, neutral red uptake assay, MRC-5. The conditions noted are these: human, MRC-5 normal lung fibroblasts, confluent monolayers, confluent cultures, 0-1000 µM, mean ± SD. The format is cell-based. The procedure:
as §2
as §1, with “Confluent” for “Human gastric adenocarcinoma cells AGS (ATCC CRL-1739) were grown as monolayers in Ham F-12 medium containing 1.0 mM L-glutamine and 1.5 g/L sodium bicarbonate, supplemented with 10% heat-inactivated FBS, 100 IU/mL penicillin and 100 µg/mL streptomycin in a humidified incubator with 5% CO2 in air at 37 °C. The cell passage was maintained between 42 and 48. The medium was changed every 2 days. Confluent”

[5] abbreviates: Mus musculus, po, single oral dose 25 mg/kg, compared with untreated controls, read-out: Gastroprotective effect: % Lesion reduction.
Setting [6] is: single oral dose 25 mg/kg, sum of lesion lengths.

For the compound `C=C1CCC2[C@](C)(CCC[C@]2(C)C(=O)O)[C@H]1CC[C@@H](C)CC(=O)N[C@@H](Cc1c[nH]c2ccccc12)C(=O)OC` (some centres unmarked) [Compound 15, Labd-8(17)-en-15,19-dioic acid, 15-tryptophanyl methyl ester amide], the IC50 at 24 h in data set [1], in data set [2] and in data set [4] was over 1000 µM each time. For the same compound, the inhibition in vivo at 25 mg/kg in data set [3] (setting [5]) came out at 73.7%. Besides, the “Gastroprotective effect: Lesion index” value in data set [3] (setting [6]) was found to be 12.1 ± 4.7 mm.
Take `C=C1CCC2[C@](C)(CCC[C@]2(C)C(=O)NCC(=O)OC)[C@H]1CC[C@@H](C)CC(=O)NCC(=O)OC` (some centres unmarked) [Compound 16, Labd-8(17)-en-15,19-dioic acid, 15,19-diglycyl methyl ester amide]: the IC50 at 24 h in data set [1] was 483 ± 29 µM; in data set [2], 529 ± 36 µM; in data set [4], over 1000 µM. Also, in data set [3] (setting [5]), the inhibition in vivo at 25 mg/kg worked out at 73.5%. Also, the “Gastroprotective effect: Lesion index” value in data set [3] (setting [6]) is listed as 12.2 ± 6.9 mm.
Consider `C=C1CCC2[C@](C)(CCC[C@]2(C)C(=O)N[C@@H](CC(C)C)C(=O)OC)[C@H]1CC[C@@H](C)CC(=O)N[C@@H](CC(C)C)C(=O)OC` (some centres unmarked) [Compound 18, Labd-8(17)-en-15,19-dioic acid, 15,19-dileucyl methyl ester amide], for which the 50% inhibitory concentration (IC50) at 24 h was over 1000 µM in data set [1], over 1000 µM in data set [2] and 495 ± 35 µM in data set [4]. Also, in data set [3] (setting [5]), the inhibition in vivo at 25 mg/kg is about 49.6%. For the same compound, in data set [3] (dose-response study, higher oral doses (50 and 100 mg/kg)), the “gastric lesion reduction at the higher doses” value is recorded as 79-89%. In data set [3] (single oral dose 25 mg/kg, sum of lesion lengths, 25 mg/kg), the “Gastroprotective effect: Lesion index” value is 23.2 ± 12.9 mm.
For `C=C1CCC2[C@](C)(CCC[C@]2(C)C(=O)N2CCC[C@H]2C(=O)OC)[C@H]1CC[C@@H](C)CC(=O)N1CCC[C@H]1C(=O)OC` (some centres unmarked) [Compound 19, Labd-8(17)-en-15,19-dioic acid, 15,19-diprolyl methyl ester amide], the IC50 at 24 h in data set [1] amounted to 206 ± 10 µM; in data set [2] it was 316 ± 16 µM; in data set [4] it was 267 ± 14 µM. In data set [3] (setting [5]), the inhibition in vivo at 25 mg/kg is 87.8%. Besides, the “Gastroprotective effect: Lesion index” value in data set [3] (setting [6]) turned out to be 5.6 ± 3.2 mm.
The corresponding values for `C=C1CCC2[C@](C)(CCC[C@]2(C)C(=O)N[C@@H](Cc2c[nH]c3ccccc23)C(=O)OCC)[C@H]1CC[C@@H](C)CC(=O)N[C@@H](Cc1c[nH]c2ccccc12)C(=O)OCC` (some centres unmarked) [Compound 20, Labd-8(17)-en-15,19-dioic acid, 15,19-ditryptophanyl ethyl ester amide] are over 1000 µM, over 1000 µM, over 1000 µM, 68.9% and 14.3 ± 10.7 mm.
As for `Cc1c(OCC(F)(F)F)ccnc1C[S+]([O-])c1nc2ccccc2[nH]1` (centres unmarked) [Lansoprazole, 2-[[[3-methyl-4-(2,2,2-trifluroethoxy)-2-pyridyl]methyl]sulfinyl]benzimidazole, reference compound], the IC50 at 24 h was determined as 162 ± 6 µM in data set [1], 221 ± 9 µM in data set [2] and 306 ± 11 µM in data set [4]. Also, the inhibition in vivo at 20 mg/kg in data set [3] (Mus musculus, po, reference drug at 20 mg/kg oral, compared with untreated controls, read-out: Gastroprotective effect: % Lesion reduction) was determined as 79.3%. For the same compound, the “Gastroprotective effect: Lesion index” value in data set [3] (reference drug at 20 mg/kg oral, 20 mg/kg) worked out at 9.5 ± 2.5 mm; in data set [3] (reference drug at 20 mg/kg oral, listed as lansoprazole, 20 mg/kg), 9.5 ± 2.5 mm.

For the origin of these results see publication PMC6259277, “Synthesis, Gastroprotective Effect and Cytotoxicity of New Amino Acid Diterpene Monoamides and Diamides” (Molecules, 2010).
